Measured values taken from ChEMBL document CHEMBL1212787, “Antimicrobial peptide hLF1-11 directs granulocyte-macrophage colony-stimulating factor-driven monocyte differentiation toward macrophages with enhanced recognition and clearance of pathogens” (2010).
The source made the active and inactive calls. The rule behind the calls is not given here.

Key:
Candida albicans [1] = experiment: Antimicrobial activity against Candida albicans infected in human macrophage assessed as induction of phagocytosis of fungus after 10 mins by flow cytometry; type: functional, organism-based
Monocyte [2] = experiment: Modulation of GM-CSF-driven human monocytes differentiation assessed as induction of LPS-induced IL-10 production after 60 mins; type: functional, cell-based
Staphylococcus aureus [3] = experiment: Antimicrobial activity against Staphylococcus aureus LUH2141 infected in human macrophage at 60 mins by FACS analysis (reference value: 9%); type: functional, organism-based
Macrophage [4] = experiment: Modulation of GM-CSF-driven human macrophage differentiation assessed as induction of 0.1 ng/ml LPS-stimulatedIL-10 production at 100 ug/ml after 20 hrs; type: functional, cell-based
Macrophage [5] = experiment: Modulation of GM-CSF-driven human macrophage differentiation assessed as induction of 1x10^6 CFU heat-killed Candida albicans cells-stimulated TNF-alpha production at 100 ug/ml after 20 hrs; type: functional, cell-based
Macrophage [6] = experiment: Modulation of GM-CSF-driven human macrophage differentiation assessed as induction of 10 ng/ml LTA-stimulatedMCP1 production at 100 ug/ml after 20 hrs; type: functional, cell-based
[7] = Modulation of GM-CSF-driven human macrophage differentiation assessed as induction of TLR4 expression in at 100 ug/ml after 7 days by flow cytometry; type: functional, cell-based
Staphylococcus aureus [8] = experiment: Antimicrobial activity against Staphylococcus aureus LUH2141 infected in human macrophage assessed as bacteria phagocytosing macrophages at 60 mins by FACS analysis (reference value: 30%); type: functional
Staphylococcus aureus [9] = experiment: Antimicrobial activity against Staphylococcus aureus LUH2141 infected in human macrophage assessed as bacteria phagocytosing macrophages at 120 mins by FACS analysis (reference value: 66%); type: functional
Candida albicans [10] = experiment: Antimicrobial activity against Candida albicans infected in human macrophage assessed as induction of phagocytosis of fungus after 60 mins by flow cytometry; type: functional, organism-based
Monocyte [11] = experiment: Modulation of GM-CSF-driven human monocytes differentiation assessed as induction of LPS-induced IL-10 production after 10 mins; type: functional, cell-based
Macrophage [12] = experiment: Modulation of GM-CSF-driven human macrophage differentiation assessed as induction of heat killed Candida albicans-stimulated IL-10 production in at 1 to 100 ug/ml after 20 hrs; type: functional, cell-based
Candida albicans [13] = experiment: Antimicrobial activity against Candida albicans infected in human macrophage assessed as fungus phagocytosing compound-treated macrophages at 30 mins by FACS analysis (reference value: 28%); type: functional
Staphylococcus aureus [14] = experiment: Antimicrobial activity against Staphylococcus aureus LUH2141 infected in human macrophage at 120 mins by FACS analysis (reference value: 17%); type: functional, organism-based
Macrophage [15] = experiment: Modulation of GM-CSF-driven human macrophage differentiation assessed as induction of CD14 expression in at 100 ug/ml after 7 days by flow cytometry; type: functional, cell-based
Macrophage [16] = experiment: Modulation of GM-CSF-driven human macrophage differentiation assessed as induction of CD206 expression at 100 ug/ml after 7 days by flow cytometry; type: functional, cell-based
Macrophage [17] = experiment: Modulation of GM-CSF-driven human macrophage differentiation assessed as induction of LPS-stimulated TNFalpha production in at 1 to 100 ug/ml after 20 hrs; type: functional, cell-based
Macrophage [18] = experiment: Modulation of GM-CSF-driven human macrophage differentiation assessed as induction of LTA-stimulated IL-12p40 production in at 1 to 100 ug/ml after 20 hrs; type: functional, cell-based
[19] = Modulation of GM-CSF-driven human macrophage differentiation assessed as induction of TLR2 expression in at 100 ug/ml after 7 days by flow cytometry; type: functional, cell-based
Candida albicans [20] = experiment: Antimicrobial activity against Candida albicans infected in human macrophage assessed as fungus phagocytosing compound-treated macrophages at 60 mins by FACS analysis (reference value: 47%); type: functional
Macrophage [21] = experiment: Modulation of GM-CSF-driven human macrophage differentiation assessed as induction of CD11b expression at 100 ug/ml after 7 days by flow cytometry; type: functional, cell-based
Monocyte [22] = experiment: Modulation of GM-CSF-driven human monocytes differentiation assessed as induction of LPS-induced IL-10 production after 7 days; type: functional, cell-based
Candida albicans [23] = experiment: Antimicrobial activity against Candida albicans infected in human macrophage assessed as fungal clearance at 60 mins by FACS analysis (reference value: 56%); type: functional, organism-based
Macrophage [24] = experiment: Modulation of GM-CSF-driven human macrophage differentiation assessed as induction of LTA-stimulated IL-10 production in at 1 to 100 ug/ml after 20 hrs; type: functional, cell-based
Candida albicans [25] = experiment: Antimicrobial activity against Candida albicans infected in human macrophage assessed as fungus phagocytosing compound-treated macrophages at 15 mins by FACS analysis (reference value: 13%); type: functional
Macrophage [26] = experiment: Modulation of GM-CSF-driven human macrophage differentiation assessed as induction of LPS-stimulated IL-10 production in at 1 to 100 ug/ml after 20 hrs; type: functional, cell-based
Macrophage [27] = experiment: Modulation of GM-CSF-driven human macrophage differentiation assessed as induction of LTA-stimulated TNFalpha production in at 1 to 100 ug/ml after 20 hrs; type: functional, cell-based
[28] = Modulation of GM-CSF-driven human macrophage differentiation assessed as induction of dectin-1 expression at 100 ug/ml after 7 days by flow cytometry; type: functional, cell-based
Macrophage [29] = experiment: Modulation of GM-CSF-driven human macrophage differentiation assessed as induction of LPS-stimulated IL-12p40 production in at 1 to 100 ug/ml after 20 hrs; type: functional, cell-based
Macrophage [30] = experiment: Modulation of GM-CSF-driven human macrophage differentiation assessed as induction of heat killed Candida albicans-stimulated IL-12p40 production in at 10 ug/ml after 20 hrs; type: functional, cell-based
Macrophage [31] = experiment: Modulation of GM-CSF-driven human macrophage differentiation assessed as induction of 1 ng/ml LTA-stimulatedMCP1 production at 100 ug/ml after 20 hrs; type: functional, cell-based
Macrophage [32] = experiment: Modulation of GM-CSF-driven human macrophage differentiation assessed as induction of heat killed Candida albicans-stimulated TNFalpha production in at 1 to 100 ug/ml after 20 hrs; type: functional, cell-based

H-GRRRRSVQWCA-OH
Activity (Candida albicans [1]): inactive | Activity (Monocyte [2]): Active | Activity (Staphylococcus aureus [3]): Active | Activity (Macrophage [4]): Active | Activity (Macrophage [5]): Active | Activity (Macrophage [6]): Active | Activity [7]: Active | Activity (Staphylococcus aureus [8]): 49% | Activity (Staphylococcus aureus [9]): 72% | Activity (Candida albicans [10]): Active | Activity (Monocyte [11]): inactive | Activity (Macrophage [12]): Active | Activity (Candida albicans [13]): 41% | Activity (Staphylococcus aureus [14]): Active | Activity (Macrophage [15]): Active | Activity (Macrophage [16]): Active | Activity (Macrophage [17]): inactive | Activity (Macrophage [18]): Active | Activity [19]: inactive | Activity (Candida albicans [20]): 54% | Activity (Macrophage [21]): inactive | Activity (Monocyte [22]): Active | Activity (Candida albicans [23]): Active | Activity (Macrophage [24]): Active | Activity (Candida albicans [25]): 22% | Activity (Macrophage [26]): Active | Activity (Macrophage [27]): inactive | Activity [28]: Active | Activity (Macrophage [29]): inactive | Activity (Macrophage [30]): Active | Activity (Macrophage [31]): Active | Activity (Macrophage [32]): Active
